In US9427482B2, “Agents for clearing biomolecules from circulation” (KONINKLIJKE PHILIPS N.V., priority 2010, dated 2016):

Tested on: LS174T xenografts
Test: Biodistribution, blood kinetics and excretion of CC49-TCO-18 pretargeted ^177Lu-tetrazine 15 (Example 12)
Assay type: in vivo, mice
Method: Groups of 4 mice bearing LS174T xenografts (70-100 mm^3) were injected either with directly labeled ^177Lu-DOTA-CC49 (100 μg/100 μl, ca. 0.5 MBq per mouse) or with CC49-TCO-18 pretargeted ^177Lu-tetrazine 15 (100 μg/100 μl CC49-TCO-18 followed by two 160 μg/100 μl doses of galactose-MSA-tetrazine 12 at 30 and 48 hours and by 8.52 μg/80 μl ^177Lu-tetrazine 15, 0.8-1.2 MBq per mouse, containing 100 μg gentisic acid). One group of mice injected with ^177Lu-DOTA-CC49 and one injected with pretargeted ^177Lu-tetrazine were used to evaluate the early blood distribution of the two tracers by withdrawing blood samples from the vena saphena at selected time points (2, 30, and 60 min for ^177Lu-DOTA-CC49 and 2, 5, 10, 20, 30, and 45 min for pretargeted ^177Lu-tetrazine) (FIG. 15). These two groups of mice were then sacrificed 3 h and 1 h after the injection of ^177Lu-DOTA-CC49 and ^177Lu-tetrazine, respectively. All other groups of mice were sacrificed at various time points up to 7 days post tracer injection. After sacrifice, blood was withdrawn by heart puncture and selected organs and tissues were harvested and blotted dry. The blood samples and tissues were weighed, added with 1 mL PBS and the radioactivity was counted in a gamma counter along with standards to determine the % ID/g and % ID (Tables 7-8). Two additional groups of tumor bearing mice were used for excretion profiles (FIG. 16). The mice injected with ^177Lu-DOTA-CC49 were housed in filtered caging units and at various time points the bedding was counted in a gamma counter along with standards. The other group of mice was injected with ^177Lu-tetrazine at higher specific activity (ca. 12 MBq/8.52 μg tetrazine per mouse) and whole body clearance was monitored by measuring the animals in a dose calibrator at various time points.

O=C([O-])CN1CCN(CC(=O)[O-])CCN(CC(=O)NCCOCCOCCOCCOCCOCCOCCOCCOCCOCCOCCOCCNC(=O)CCCC(=O)Nc2ccc(-c3nnc(-c4ccccn4)nn3)nc2)CCN(CC(=O)[O-])CC1.[177Lu+3] [^177Lu-tetrazine]
biodistribution bladder (1 hours): 2.21 ± 1.15 % ID/g
biodistribution blood (1 hours): 0.42 ± 0.20 % ID/g
biodistribution bone (1 hours): 1.08 ± 1.34 % ID/g
biodistribution brain (1 hours): 0.03 ± 0.03 % ID/g
biodistribution heart (1 hours): 0.16 ± 0.05 % ID/g
biodistribution kidney (1 hours): 2.38 ± 0.55 % ID/g
biodistribution lg. intestine (1 hours): 0.38 ± 0.11 % ID
biodistribution liver (1 hours): 0.29 ± 0.08 % ID/g
biodistribution lung (1 hours): 0.54 ± 0.15 % ID/g
biodistribution muscle (1 hours): 0.23 ± 0.21 % ID/g
biodistribution ovaries (1 hours): 0.57 ± 0.37 % ID/g
biodistribution sm. intestine (1 hours): 0.16 ± 0.03 % ID
biodistribution spleen (1 hours): 0.17 ± 0.04 % ID/g
biodistribution stomach (1 hours): 0.10 ± 0.10 % ID
biodistribution tumor (1 hours): 4.71 ± 1.13 % ID/g
biodistribution uterus (1 hours): 2.80 ± 1.64 % ID/g
biodistribution bladder (3 hours): 0.85 ± 0.64 % ID/g
biodistribution blood (3 hours): 0.03 ± 0.00 % ID/g
biodistribution bone (3 hours): 0.17 ± 0.19 % ID/g
biodistribution brain (3 hours): 0.00 ± 0.00 % ID/g
biodistribution heart (3 hours): 0.04 ± 0.00 % ID/g
biodistribution kidney (3 hours): 1.58 ± 0.14 % ID/g
biodistribution lg. intestine (3 hours): 0.15 ± 0.04 % ID
biodistribution liver (3 hours): 0.18 ± 0.02 % ID/g
biodistribution lung (3 hours): 0.21 ± 0.03 % ID/g
biodistribution muscle (3 hours): 0.05 ± 0.03 % ID/g
biodistribution ovaries (3 hours): 0.21 ± 0.19 % ID/g
biodistribution sm. intestine (3 hours): 0.22 ± 0.07 % ID
biodistribution spleen (3 hours): 0.09 ± 0.01 % ID/g
biodistribution stomach (3 hours): 0.02 ± 0.01 % ID
biodistribution tumor (3 hours): 5.38 ± 0.48 % ID/g
biodistribution uterus (3 hours): 0.35 ± 0.42 % ID/g
injected activity excreted in the urine (3 hours post injection): over 95%
tumor-to-blood ratio (3 hours post injection): ~200
biodistribution bladder (6 hours): 0.20 ± 0.08 % ID/g
biodistribution blood (6 hours): 0.02 ± 0.00 % ID/g
biodistribution bone (6 hours): 0.03 ± 0.00 % ID/g
biodistribution brain (6 hours): 0.00 ± 0.00 % ID/g
biodistribution heart (6 hours): 0.03 ± 0.01 % ID/g
biodistribution kidney (6 hours): 1.09 ± 0.18 % ID/g
biodistribution lg. intestine (6 hours): 0.05 ± 0.01 % ID
biodistribution liver (6 hours): 0.15 ± 0.01 % ID/g
biodistribution lung (6 hours): 0.11 ± 0.02 % ID/g
biodistribution muscle (6 hours): 0.02 ± 0.00 % ID/g
biodistribution ovaries (6 hours): 0.09 ± 0.02 % ID/g
biodistribution sm. intestine (6 hours): 0.38 ± 0.26 % ID
biodistribution spleen (6 hours): 0.07 ± 0.01 % ID/g
biodistribution stomach (6 hours): 0.01 ± 0.01 % ID
biodistribution tumor (6 hours): 4.53 ± 1.69 % ID/g
biodistribution uterus (6 hours): 0.10 ± 0.04 % ID/g
biodistribution bladder (1 day): 0.20 ± 0.06 % ID/g
biodistribution blood (1 day): 0.01 ± 0.00 % ID/g
biodistribution bone (1 day): 0.03 ± 0.01 % ID/g
biodistribution brain (1 day): 0.00 ± 0.00 % ID/g
biodistribution heart (1 day): 0.03 ± 0.00 % ID/g
biodistribution kidney (1 day): 1.01 ± 0.13 % ID/g
biodistribution lg. intestine (1 day): 0.06 ± 0.06 % ID
biodistribution liver (1 day): 0.13 ± 0.02 % ID/g
biodistribution lung (1 day): 0.10 ± 0.01 % ID/g
biodistribution muscle (1 day): 0.02 ± 0.00 % ID/g
biodistribution ovaries (1 day): 0.08 ± 0.03 % ID/g
biodistribution sm. intestine (1 day): 0.09 ± 0.05 % ID
biodistribution spleen (1 day): 0.07 ± 0.01 % ID/g
biodistribution stomach (1 day): 0.04 ± 0.05 % ID
biodistribution tumor (1 day): 3.83 ± 0.95 % ID/g
biodistribution uterus (1 day): 0.09 ± 0.02 % ID/g
biodistribution bladder (2 days): 0.12 ± 0.07 % ID/g
biodistribution blood (2 days): 0.01 ± 0.00 % ID/g
biodistribution bone (2 days): 0.02 ± 0.00 % ID/g
biodistribution brain (2 days): 0.00 ± 0.00 % ID/g
biodistribution heart (2 days): 0.03 ± 0.01 % ID/g
biodistribution kidney (2 days): 0.49 ± 0.07 % ID/g
biodistribution lg. intestine (2 days): 0.07 ± 0.08 % ID
biodistribution liver (2 days): 0.11 ± 0.02 % ID/g
biodistribution lung (2 days): 0.08 ± 0.03 % ID/g
biodistribution muscle (2 days): 0.02 ± 0.01 % ID/g
biodistribution ovaries (2 days): 0.10 ± 0.06 % ID/g
biodistribution sm. intestine (2 days): 0.06 ± 0.06 % ID
biodistribution spleen (2 days): 0.07 ± 0.01 % ID/g
biodistribution stomach (2 days): 0.01 ± 0.01 % ID
biodistribution tumor (2 days): 3.15 ± 1.32 % ID/g
biodistribution uterus (2 days): 0.12 ± 0.09 % ID/g
biodistribution bladder (4 days): 0.13 ± 0.04 % ID/g
biodistribution blood (4 days): 0.00 ± 0.00 % ID/g
biodistribution bone (4 days): 0.02 ± 0.01 % ID/g
biodistribution brain (4 days): 0.00 ± 0.00 % ID/g
biodistribution heart (4 days): 0.02 ± 0.00 % ID/g
biodistribution kidney (4 days): 0.34 ± 0.02 % ID/g
biodistribution lg. intestine (4 days): 0.03 ± 0.02 % ID
biodistribution liver (4 days): 0.14 ± 0.02 % ID/g
biodistribution lung (4 days): 0.06 ± 0.01 % ID/g
biodistribution muscle (4 days): 0.01 ± 0.00 % ID/g
biodistribution ovaries (4 days): 0.09 ± 0.02 % ID/g
biodistribution sm. intestine (4 days): 0.04 ± 0.04 % ID
biodistribution spleen (4 days): 0.07 ± 0.01 % ID/g
biodistribution stomach (4 days): 0.01 ± 0.00 % ID
biodistribution tumor (4 days): 2.06 ± 0.84 % ID/g
biodistribution uterus (4 days): 0.10 ± 0.07 % ID/g
biodistribution bladder (7 days): 0.15 ± 0.02 % ID/g
biodistribution blood (7 days): 0.00 ± 0.00 % ID/g
biodistribution bone (7 days): 0.01 ± 0.00 % ID/g
biodistribution brain (7 days): 0.00 ± 0.00 % ID/g
biodistribution heart (7 days): 0.01 ± 0.00 % ID/g
biodistribution kidney (7 days): 0.19 ± 0.04 % ID/g
biodistribution lg. intestine (7 days): 0.02 ± 0.01 % ID
biodistribution liver (7 days): 0.13 ± 0.03 % ID/g
biodistribution lung (7 days): 0.04 ± 0.01 % ID/g
biodistribution muscle (7 days): 0.01 ± 0.00 % ID/g
biodistribution ovaries (7 days): 0.08 ± 0.04 % ID/g
biodistribution sm. intestine (7 days): 0.07 ± 0.04 % ID
biodistribution spleen (7 days): 0.08 ± 0.01 % ID/g
biodistribution stomach (7 days): 0.01 ± 0.00 % ID
biodistribution tumor (7 days): 1.02 ± 0.36 % ID/g
biodistribution uterus (7 days): 0.21 ± 0.16 % ID/g
T1/2, elimination from blood (CC49-TCO pretargeted mice): 11.2 min
tumor-to-blood ratio (by the end of the experiment (7 days)): over 500
